[ ]: non-standard residue; d: D form. Aib = CC(C)(N)C(=O)O
Legend:
[1] = test system: Fgr(Y412); experiment: Phospho-kinase array, RBL-2H3/ETFR cells; type: cell-based, rat; conditions: 10 nM fMLF plus 10 nM peptide, 10 min
Experimental: (§1) RBL-2H3/ETFR grown to semi-confluence, were exposed to DMEM alone, 10 nM fMLF with/without 10 nM RI-3 at 37 °C in humidified air with 5% CO2. At the indicated times, cells were lysed in RIPA buffer and cell lysate protein content was measured by a colorimetric assay. Western blot analysis of AKT phosphorylation was performed as previously described using anti-phospho-Akt (Ser473) (pAKT) Ab (Cell Signaling) and anti-Akt mAb (R&D System). The effects of fMLF with/without 10 nM RI-3 were analyzed at the level of global kinase phosphorylation, using the dot-blot Proteome Profiler^TM Array Human PhosphoKinase Array Kit (R&D Systems), according to manufacturer’s instructions. Briefly, 300 µg of protein were applied on each membrane and the signals were detected as described for Western blot. The pixel density of each spot was measured using NIH Image 1.62 software. The intensity of positive control spots was used to normalize results between the four membranes. The intensity for each spot was then averaged over the duplicate spots.

[2] = test system: ERK1/2(T202/Y204/T185/Y187); experiment: Phospho-kinase array, RBL-2H3/ETFR cells; type: cell-based, rat; conditions: 10 nM fMLF plus 10 nM peptide, 10 min
Experimental: as §1

[3] = test system: Akt(S473); experiment: Phospho-kinase array, RBL-2H3/ETFR cells; type: cell-based, rat; conditions: 10 nM fMLF plus 10 nM peptide, 10 min
Experimental: as §1

[4] = Stability in human serum, read out as retained inhibition of HT1080 matrigel invasion; type: in vitro ADME; conditions: pre-incubated at 10^−3 M in human serum 18 hr at 37 °C; tested at 10 nM on HT1080 matrigel invasion, Boyden chambers, 6 hr; three experiments in triplicate
Experimental: A major limitation of peptides for use as therapeutics is susceptibility to degradation by serum proteases. The stability of RI-3 in bovine and human serum was investigated by comparing inhibitory activities of RI-3 and RI-3 pre-incubated at 10^−3 M with serum for 18 hr at 37 °C on cell migration and invasion. HT1080 cells were allowed to migrate for 18 hr toward DMEM (CTRL), 10% FBS (None), 10% FBS plus 10 nM RI-3 or 10% FBS with 10 nM RI-3 pre-incubated in bovine serum. […] The stability of RI-3 in human serum was investigated in cell invasion experiments performed in Boyden chambers. […]
(a) HT1080 cells were allowed to migrate in real time for 18 hr toward DMEM (CTRL), or 10% FBS in the absence (None) or the presence of 10 nM RI-3 or 10 nM RI-3 pre-incubated at 10^−3 M in bovine serum for 18 hr at 37 °C. […] The basal value assessed in the absence of FBS (CTRL) was taken as 100% and all values were reported relative to that. Data are the means ± SD three independent experiments, performed in triplicate. *Indicates statistical significance calculated against None, with *P < 0.05, **P < 0.0001. (c) Cell proliferation of HT1080 cells assessed by MTS assay. […] At the indicated times, the absorbance of adherent cells was assessed with a microplate reader. […]

[5] = test system: chondrosarcoma Sarc cells; experiment: Matrigel invasion kinetics, xCELLigence RTCA, Sarc; type: cell-based, human; conditions: 10 nM, 10% FBS, 20 hr
Experimental: (§2) This assay was performed using E-well plates and the xCELLigence RTCA technology as described. Bottom wells were coated with 20 µg/well matrigel diluted in serum free medium. Matrigel was allowed to polymerize for 1 hr at 37 °C prior to seeding cells (1 × 10^4 cells/well) suspended in growth medium plus/minus RI peptides. Cells that cross matrigel adhere to the bottom of plates causing impedance changes that are proportional to the number of invading cells, and are expressed as a cell index value. Matrigel invasion was monitored for 20 hr. The experiments were performed three times in quadruplicate.

[6] = test system: HUVECs; experiment: Endothelial cell tube formation on matrigel; type: cell-based, human; conditions: 10 nM, three experiments in duplicate
Experimental: The formation of vascular-like structures was assessed on a matrigel basement membrane matrix preparation. HUVEC (4 × 10^4 cells/well) were suspended in 300 µl pre-warmed serum-free medium. Diluents or effectors were added to the cell suspension prior to seeding cells on polymerized growth factor-reduced matrigel (100 µl/well) (Becton Dickinson). Assays were carried out for 6 hr at 37 °C in humidified air with 5% CO2 as described. To quantify tube formation, five random areas/well at 100× magnification were imaged and the number of tubes formed by cord-like structures exceeding 100 μm in length, measured using Axiovision 4.4 software (Carl Zeiss), were counted. The experiments were performed three times in duplicate.

[7] = test system: osteosarcoma Saos-2 cells; experiment: Matrigel invasion kinetics, xCELLigence RTCA, Saos-2; type: cell-based, human; conditions: Saos-2, 10 nM, 10% FBS, 20 hr
Experimental: as §2

For “Ac-[dY][dR][Aib][dR]-NH2 (SMILES CC(=O)N[C@H](Cc1ccc(O)cc1)C(=O)N[C@H](CCCNC(=N)N)C(=O)NC(C)(C)C(=O)N[C@H](CCCNC(=N)N)C(N)=O) [RI-3]”, the “reduction in fMLF-dependent phosphorylation of Fgr(Y412)” value [1] was 43%, the “reduction in fMLF-dependent phosphorylation of ERK1/2(T202/Y204/T185/Y187)” value [2] was 25% and the “reduction in fMLF-dependent phosphorylation of Akt(S473)” value [3] was 22%. The “inhibitory activity retained after pre-incubation with human serum” value [4] was 81%, the “reduction of matrigel invasion (slope of cell index)” value [5] was 47% and the “reduction of VEGF-dependent endothelial capillary-like structures” value ([6]; EBM plus 40 ng/mL VEGF165, 6 hr on matrigel) was 75%. For the same substance, the “reduction of FBS-dependent endothelial capillary-like structures” value ([6]; EBM plus 10% FBS, 6 hr on matrigel) was 61% and the “reduction of matrigel invasion (slope of cell index)” value [7] was 24%.
